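Results reflect a 48-hour exposure of cells in 96-well plates to compound at five concentrations. GI50: concentration for 50% inhibition of growth.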 Active and inactive are the calls of the source. Rule as the data show it: active = GI50 up to about 1.1 µM and inactive = higher.
Legend:
Test in all cases: DTP human tumour cell line panel, 48 h
SR = test system: SR
DU-145 = test system: DU-145
NCI/ADR-RES = test system: NCI/ADR-RES
MDA-N = test system: MDA-N
PC-3 = test system: PC-3
M14 = test system: M14
RXF 393 = test system: RXF 393
K562 = test system: K562
Hs-578T = test system: Hs-578T
TK-10 = test system: TK-10
ACHN = test system: ACHN
MDA-MB-231 = test system: MDA-MB-231
MCF7 = test system: MCF7
786-0 = test system: 786-0
T47D = test system: T47D
SN12C = test system: SN12C
SK-OV-3 = test system: SK-OV-3
MDA-MB-435 = test system: MDA-MB-435
BT-549 = test system: BT-549
SNB-78 = test system: SNB-78

Measured: GI50

Cc1ccc(S(=O)(=O)NNC(=O)Nc2ccc(Cl)cc2)cc1
inactive: SR > 100 µM | DU-145 > 100 µM | NCI/ADR-RES > 100 µM | MDA-N > 100 µM | PC-3 > 100 µM | M14 > 100 µM | RXF 393 > 100 µM | K562 4.26 µM | Hs-578T > 100 µM | TK-10 > 100 µM | ACHN 6.22 µM | MDA-MB-231 > 100 µM | MCF7 > 100 µM | 786-0 > 100 µM | T47D > 100 µM | SN12C > 100 µM | SK-OV-3 > 100 µM | MDA-MB-435 > 100 µM

CN(CC(=O)O)CC(=O)O
inactive: DU-145 > 100 µM | NCI/ADR-RES > 100 µM | MDA-N > 100 µM | PC-3 > 100 µM | M14 > 100 µM | RXF 393 > 100 µM | K562 > 100 µM | Hs-578T > 100 µM | TK-10 > 100 µM | ACHN > 100 µM | MDA-MB-231 > 100 µM | MCF7 > 100 µM | BT-549 > 100 µM | 786-0 > 100 µM | T47D > 100 µM | SN12C > 100 µM | SK-OV-3 > 100 µM | MDA-MB-435 > 100 µM

CCOC(=O)/C(Cl)=C(\C)Nc1nc2c(ccc3ccccc32)s1
inactive: SR 19.5 µM | DU-145 20.6 µM | NCI/ADR-RES > 100 µM | MDA-N 26.3 µM | PC-3 22.5 µM | M14 33.2 µM | K562 17.5 µM | Hs-578T 35 µM | TK-10 > 100 µM | ACHN > 100 µM | MDA-MB-231 60.5 µM | MCF7 24.5 µM | BT-549 61.7 µM | T47D 13.6 µM | SN12C 47.6 µM | SK-OV-3 > 100 µM

O=c1ccc2ccc(CBr)cc2o1
inactive: SR 2.2 µM | DU-145 17.1 µM | NCI/ADR-RES 1.69 µM | MDA-N 3.85 µM | PC-3 > 100 µM | M14 2.8 µM | RXF 393 1.94 µM | K562 2.18 µM | Hs-578T 9.84 µM | TK-10 1.75 µM | MDA-MB-231 1.72 µM | MCF7 1.9 µM | BT-549 3 µM | T47D 2.38 µM | SN12C 2.69 µM | MDA-MB-435 3.14 µM

COc1cc(C2S/C(=C/c3ccccc3)C(=O)N2c2ccccc2Cl)cc(OC)c1OC (centres undefined)
inactive: NCI/ADR-RES 25.6 µM | MDA-N 15.7 µM | PC-3 21.8 µM | M14 20.2 µM | RXF 393 9.53 µM | Hs-578T 16.5 µM | TK-10 76.2 µM | ACHN 44.4 µM | MDA-MB-231 23.4 µM | MCF7 18.6 µM | BT-549 29.3 µM | T47D 5.26 µM | SN12C 21.4 µM | SK-OV-3 29.6 µM | MDA-MB-435 15.6 µM

CC(=O)c1c(-c2ccccc2)c(-c2ccc(OCCN(C)C)cc2)n2ccccc12
inactive: DU-145 16.8 µM | NCI/ADR-RES 14.5 µM | MDA-N 15.8 µM | PC-3 16.2 µM | M14 16.7 µM | K562 13.4 µM | Hs-578T 16.3 µM | TK-10 17 µM | ACHN 15.8 µM | MDA-MB-231 16.9 µM | MCF7 18 µM | BT-549 14.9 µM | 786-0 18.3 µM | T47D 16.7 µM | SN12C 16 µM | SK-OV-3 19.2 µM | MDA-MB-435 17.7 µM

COc1ccc2nc(-n3c(/C=C/c4ccccc4O)nc4ccccc4c3=O)sc2c1
inactive: DU-145 > 100 µM | NCI/ADR-RES 55.3 µM | MDA-N 17 µM | PC-3 53.5 µM | M14 33.6 µM | RXF 393 71.6 µM | K562 20.4 µM | Hs-578T > 100 µM | TK-10 > 100 µM | ACHN > 100 µM | MDA-MB-231 > 100 µM | MCF7 47.5 µM | BT-549 27.5 µM | 786-0 35.9 µM | SK-OV-3 > 100 µM | MDA-MB-435 19.7 µM

COc1ccc(NC(C)=O)cc1N1C(=O)/C(=C\c2ccccc2)SC1c1cc(OC)c(OC)c(OC)c1 (centres undefined)
inactive: SR 37.8 µM | DU-145 20.4 µM | NCI/ADR-RES 17.4 µM | MDA-N 25.8 µM | PC-3 29 µM | M14 35.6 µM | RXF 393 27 µM | K562 33.7 µM | TK-10 > 100 µM | ACHN 39.2 µM | MDA-MB-231 52.7 µM | MCF7 28.5 µM | BT-549 47.4 µM | 786-0 19.2 µM | T47D 40.1 µM | SN12C 80.5 µM | SK-OV-3 41 µM | MDA-MB-435 24.9 µM

Clc1nc(-[n+]2ccc(-c3ccncc3)cc2)nc(Nc2ccccc2)c1Cl
inactive: SR 26.2 µM | DU-145 > 100 µM | NCI/ADR-RES > 100 µM | MDA-N > 100 µM | PC-3 > 100 µM | M14 > 100 µM | RXF 393 > 100 µM | K562 52.1 µM | Hs-578T > 100 µM | TK-10 > 100 µM | ACHN > 100 µM | MDA-MB-231 > 100 µM | MCF7 33.1 µM | BT-549 > 100 µM | 786-0 83.8 µM | T47D 43.7 µM | SN12C > 100 µM | SK-OV-3 > 100 µM | MDA-MB-435 > 100 µM

Cc1ccc(S(=O)(=O)OCCN(CCOS(=O)(=O)c2ccc(C)cc2)c2ccc(C=O)cc2)cc1
inactive: DU-145 27.1 µM | NCI/ADR-RES 36.2 µM | PC-3 32.7 µM | M14 32.4 µM | RXF 393 15.7 µM | K562 38.4 µM | Hs-578T 36.2 µM | TK-10 36.3 µM | ACHN 33.6 µM | MDA-MB-231 23.8 µM | MCF7 30.7 µM | BT-549 28.8 µM | T47D 40.7 µM | MDA-MB-435 21.4 µM

O/N=C\c1cc(O)c(O)c(/C=N/O)c1
inactive: SR 11 µM | DU-145 31.6 µM | NCI/ADR-RES 32 µM | MDA-N 47.9 µM | PC-3 33.3 µM | M14 27.5 µM | RXF 393 25.6 µM | K562 36 µM | Hs-578T 23.9 µM | TK-10 63.4 µM | ACHN 24.2 µM | MDA-MB-231 56.5 µM | MCF7 35.5 µM | BT-549 79.1 µM | T47D 36.1 µM | SN12C 27.2 µM | SK-OV-3 33.7 µM | MDA-MB-435 38.8 µM

CO[C@H]1SC[C@H](OC(C)=O)[C@H](OC(C)=O)[C@H]1OC(C)=O
inactive: SR > 100 µM | DU-145 > 100 µM | NCI/ADR-RES > 100 µM | MDA-N > 100 µM | M14 > 100 µM | K562 > 100 µM | Hs-578T > 100 µM | TK-10 > 100 µM | ACHN > 100 µM | MDA-MB-231 > 100 µM | MCF7 > 100 µM | BT-549 > 100 µM | 786-0 > 100 µM | T47D > 100 µM | SN12C > 100 µM | MDA-MB-435 > 100 µM

COC(=O)C1=Nc2c(C)nn(-c3ccccc3)c2N=C(c2ccccc2)C1
inactive: SR > 10 µM | DU-145 > 10 µM | NCI/ADR-RES > 10 µM | MDA-N > 10 µM | PC-3 > 10 µM | M14 > 10 µM | K562 > 10 µM | Hs-578T > 10 µM | TK-10 > 10 µM | ACHN > 10 µM | MDA-MB-231 > 10 µM | MCF7 > 10 µM | BT-549 > 10 µM | 786-0 > 10 µM | T47D > 10 µM | SN12C > 10 µM | SK-OV-3 > 10 µM | MDA-MB-435 > 10 µM

C[C@H](N[C@H]1CCC[C@]1(O)C#Cc1ccc2c(c1)OCO2)c1ccccc1
inactive: SR 20.7 µM | DU-145 > 25 µM | NCI/ADR-RES > 25 µM | PC-3 13.6 µM | M14 14.2 µM | RXF 393 > 25 µM | K562 11.7 µM | Hs-578T > 25 µM | TK-10 > 25 µM | ACHN > 25 µM | MDA-MB-231 22.1 µM | MCF7 > 25 µM | T47D 21.8 µM | SK-OV-3 > 25 µM | MDA-MB-435 > 25 µM

CC(=O)C(CN1CCCCC1)C(c1ccccc1)c1c(O)c2ccccc2oc1=O (centres undefined)
inactive: SR > 100 µM | DU-145 > 100 µM | NCI/ADR-RES > 100 µM | MDA-N > 100 µM | PC-3 > 100 µM | M14 > 100 µM | RXF 393 > 100 µM | K562 > 100 µM | Hs-578T > 100 µM | TK-10 > 100 µM | ACHN > 100 µM | MDA-MB-231 > 100 µM | MCF7 > 100 µM | BT-549 > 100 µM | 786-0 > 100 µM | T47D > 100 µM | SN12C > 100 µM | SK-OV-3 > 100 µM | MDA-MB-435 > 100 µM

COc1cc(CCc2ccncc2)cc(OC)c1OC
inactive: M14 > 100 µM | RXF 393 > 100 µM | K562 > 100 µM | TK-10 > 100 µM | ACHN > 100 µM | 786-0 > 100 µM | SN12C > 100 µM | SNB-78 > 100 µM

O=c1c(C(c2ccc(OCc3ccccc3)cc2)c2c(O)oc3ccccc3c2=O)c(O)oc2ccccc12
inactive: DU-145 67.6 µM | NCI/ADR-RES 34.2 µM | MDA-N 24.7 µM | PC-3 39.7 µM | M14 48.1 µM | RXF 393 > 100 µM | K562 10 µM | Hs-578T 34.3 µM | TK-10 62.1 µM | ACHN 23.4 µM | MDA-MB-231 27 µM | MCF7 48.4 µM | BT-549 24.9 µM | 786-0 38.2 µM | T47D 81.1 µM | SN12C 30.4 µM | SK-OV-3 50.5 µM | MDA-MB-435 41.9 µM

From ChEMBL document CHEMBL1201862, “PubChem BioAssay data set” (2004)
